Experimental data from patent publication US6737383B1, “Herbicidal oxadiazolidines” (priority 1999, dated 2004).

Assays:
bedstraw = experiment: Test B pre/postemergence bedstraw; type: in vivo, Galium aparine; details: for Bedstraw plant response rating: scale of 0 to 10 where 0 is no effect and 10 is complete control
Summary of the method: (§1)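 Test chemicals in a non-phytotoxic solvent mixture with surfactant were sprayed preemergence onto planted seeds and postemergence onto plants 2 to 18 cm tall (1- to 4-leaf stage). After twelve to sixteen days in a greenhouse, injury was visually rated against untreated controls from 0 (no effect) to 10 (complete control).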

blackgrass = experiment: Test B pre/postemergence blackgrass; type: in vivo, Alopecurus myosuroides; details: for Blackgrass plant response rating: scale of 0 to 10 where 0 is no effect and 10 is complete control
Summary of the method: as §1

surinam grass = experiment: Test B pre/postemergence surinam grass; type: in vivo, Brachiaria decumbens; details: for B. signalgrass plant response rating: scale of 0 to 10 where 0 is no effect and 10 is complete control
Summary of the method: as §1

cocklebur = experiment: Test B pre/postemergence cocklebur; type: in vivo, Xanthium strumarium; details: for Cocklebur plant response rating: scale of 0 to 10 where 0 is no effect and 10 is complete control
Summary of the method: as §1

corn = experiment: Test B pre/postemergence corn; type: in vivo, Zea mays; details: for Corn plant response rating: scale of 0 to 10 where 0 is no effect and 10 is complete control
Summary of the method: as §1

crabgrass = experiment: Test B pre/postemergence crabgrass; type: in vivo, Digitaria sanguinalis; details: for Crabgrass plant response rating: scale of 0 to 10 where 0 is no effect and 10 is complete control
Summary of the method: as §1

giant foxtail = experiment: Test B pre/postemergence giant foxtail; type: in vivo, Setaria faberii; details: for Giant foxtail plant response rating: scale of 0 to 10 where 0 is no effect and 10 is complete control
Summary of the method: as §1

morningglory = experiment: Test B pre/postemergence morningglory; type: in vivo, Ipomoea hederacea; details: for Morningglory plant response rating: scale of 0 to 10 where 0 is no effect and 10 is complete control
Summary of the method: as §1

pigweed = experiment: Test B pre/postemergence pigweed; type: in vivo, Amaranthus retroflexus; details: for Redroot pigweed plant response rating: scale of 0 to 10 where 0 is no effect and 10 is complete control
Summary of the method: as §1

rape = experiment: Test B pre/postemergence rape; type: in vivo, Brassica napus; details: for Rape plant response rating: scale of 0 to 10 where 0 is no effect and 10 is complete control
Summary of the method: as §1

soybean = experiment: Test B pre/postemergence soybean; type: in vivo, Glycine max; details: for Soybean plant response rating: scale of 0 to 10 where 0 is no effect and 10 is complete control
Summary of the method: as §1

sugar beet = experiment: Test B pre/postemergence sugar beet; type: in vivo, Beta vulgaris; details: for Sugarbeets plant response rating: scale of 0 to 10 where 0 is no effect and 10 is complete control
Summary of the method: as §1

velvetleaf = experiment: Test B pre/postemergence velvetleaf; type: in vivo, Abutilon theophrasti; details: for Velvetleaf plant response rating: scale of 0 to 10 where 0 is no effect and 10 is complete control
Summary of the method: as §1

wheat = experiment: Test B pre/postemergence wheat; type: in vivo, Triticum aestivum; details: for Wheat plant response rating: scale of 0 to 10 where 0 is no effect and 10 is complete control
Summary of the method: as §1

wild oat = experiment: Test B pre/postemergence wild oat; type: in vivo, Avena fatua; details: for Wild oats plant response rating: scale of 0 to 10 where 0 is no effect and 10 is complete control
Summary of the method: as §1

purple nutsedge = experiment: Test B pre/postemergence purple nutsedge; type: in vivo, Cyperus rotundus; details: for Nutsedge plant response rating: scale of 0 to 10 where 0 is no effect and 10 is complete control
Summary of the method: as §1

[1] = Postemergence, Rate 125 g/ha, scale 0 to 10, 0 is no effect, 10 is complete control
[2] = Postemergence, Rate 250 g/ha, scale 0 to 10, 0 is no effect, 10 is complete control
[3] = Preemergence, Rate 62 g/ha, scale 0 to 10 (0 no effect, 10 complete control)
[4] = Rate 500 g/ha, Postemergence, scale 0 to 10, 0 no effect, 10 complete control

CC(C)N(C(=O)n1oc(=O)n(C2(C)CC2)c1=O)c1ccc(F)cc1F [Compound 363]
9: Plant response rating, Bedstraw (bedstraw; [3]) | Bedstraw plant response rating (0 to 10 scale) (bedstraw; Preemergence, Rate 125 g/ha) | Plant response rating, Bedstraw (bedstraw; [4]) | Crabgrass plant response rating (crabgrass; Preemergence, Rate 500 g/ha) | Plant response rating, Crabgrass (crabgrass; [4]) | Plant response rating, Giant foxtail (giant foxtail; [2]) | Plant response rating, Giant foxtail (giant foxtail; [4]) | Wild oats plant response rating (0 to 10 scale) (wild oat; Preemergence, Rate 125 g/ha)
5: Blackgrass plant response rating (blackgrass; Rate 62 g/ha, Postemergence) | B. signalgrass plant response rating (surinam grass; Preemergence, Rate 250 g/ha) | Plant response rating, B. signalgrass (surinam grass; [4]) | Plant response rating, Crabgrass (crabgrass; [2]) | Morningglory plant response rating (morningglory; Preemergence, Rate 250 g/ha) | Plant response rating, Redroot pigweed (pigweed; [4]) | Rape plant response rating (rape; Preemergence, Rate 500 g/ha) | Plant response rating, Soybean (soybean; [1]) | Velvetleaf plant response rating (0 to 10 scale) (velvetleaf; Preemergence, Rate 125 g/ha) | Plant response rating, Wheat (wheat; [2]) | Wheat plant response rating (0 to 10 scale) (wheat; Preemergence, Rate 125 g/ha) | Plant response rating, Wild oats (wild oat; [3])
2: Plant response rating, Cocklebur (cocklebur; [2]) | Plant response rating, Cocklebur (cocklebur; [4]) | Plant response rating, Corn (corn; [2]) | Plant response rating, Crabgrass (crabgrass; [1]) | Plant response rating, Redroot pigweed (pigweed; [2]) | Plant response rating, Redroot pigweed (pigweed; [3]) | Plant response rating, Rape (rape; [4]) | Nutsedge plant response rating (purple nutsedge; Preemergence, Rate 500 g/ha)
1: Plant response rating, B. signalgrass (surinam grass; [2]) | Crabgrass plant response rating (crabgrass; Rate 62 g/ha, Postemergence) | Plant response rating, Morningglory (morningglory; [1]) | Plant response rating, Morningglory (morningglory; [2]) | Morningglory plant response rating (morningglory; Rate 62 g/ha, Postemergence) | Rape plant response rating (0 to 10 scale) (rape; Preemergence, Rate 125 g/ha) | Plant response rating, Sugarbeets (sugar beet; [1]) | Plant response rating, Velvetleaf (velvetleaf; [3]) | Plant response rating, Wild oats (wild oat; [2])
8: Plant response rating, Blackgrass (blackgrass; [3]) | Plant response rating, Blackgrass (blackgrass; [4]) | Sugarbeets plant response rating (sugar beet; Preemergence, Rate 500 g/ha)
0: Plant response rating, B. signalgrass (surinam grass; [1]) | B. signalgrass plant response rating (surinam grass; Rate 62 g/ha, Postemergence) | Plant response rating, Cocklebur (cocklebur; [1]) | Plant response rating, Cocklebur (cocklebur; [3]) | Cocklebur plant response rating (0 to 10 scale) (cocklebur; Preemergence, Rate 125 g/ha) | Cocklebur plant response rating (cocklebur; Preemergence, Rate 250 g/ha) | Cocklebur plant response rating (cocklebur; Preemergence, Rate 500 g/ha) | Cocklebur plant response rating (cocklebur; Rate 62 g/ha, Postemergence) | Plant response rating, Corn (corn; [1]) | Plant response rating, Corn (corn; [3]) | Corn plant response rating (0 to 10 scale) (corn; Preemergence, Rate 125 g/ha) | Corn plant response rating (corn; Rate 62 g/ha, Postemergence) | Plant response rating, Morningglory (morningglory; [3]) | Morningglory plant response rating (0 to 10 scale) (morningglory; Preemergence, Rate 125 g/ha) | Plant response rating, Redroot pigweed (pigweed; [1]) | Redroot pigweed plant response rating (pigweed; Rate 62 g/ha, Postemergence) | Plant response rating, Rape (rape; [1]) | Plant response rating, Rape (rape; [2]) | Plant response rating, Rape (rape; [3]) | Rape plant response rating (rape; Rate 62 g/ha, Postemergence) | Plant response rating, Soybean (soybean; [3]) | Soybean plant response rating (0 to 10 scale) (soybean; Preemergence, Rate 125 g/ha) | Soybean plant response rating (soybean; Preemergence, Rate 250 g/ha) | Soybean plant response rating (soybean; Preemergence, Rate 500 g/ha) | Plant response rating, Sugarbeets (sugar beet; [3]) | Sugarbeets plant response rating (sugar beet; Rate 62 g/ha, Postemergence) | Plant response rating, Velvetleaf (velvetleaf; [1]) | Velvetleaf plant response rating (velvetleaf; Rate 62 g/ha, Postemergence) | Wheat plant response rating (wheat; Rate 62 g/ha, Postemergence) | Plant response rating, Wild oats (wild oat; [1]) | Wild oats plant response rating (wild oat; Rate 62 g/ha, Postemergence) | Plant response rating, Nutsedge (purple nutsedge; [1]) | Plant response rating, Nutsedge (purple nutsedge; [2]) | Plant response rating, Nutsedge (purple nutsedge; [3]) | Nutsedge plant response rating (0 to 10 scale) (purple nutsedge; Preemergence, Rate 125 g/ha) | Nutsedge plant response rating (purple nutsedge; Preemergence, Rate 250 g/ha) | Nutsedge plant response rating (purple nutsedge; Rate 62 g/ha, Postemergence) | Plant response rating, Nutsedge (purple nutsedge; [4])
3: Plant response rating, B. signalgrass (surinam grass; [3]) | B. signalgrass plant response rating (0 to 10 scale, 0 is no effect, 10 is complete control) (surinam grass; Preemergence, Rate 125 g/ha) | Corn plant response rating (corn; Preemergence, Rate 250 g/ha) | Plant response rating, Crabgrass (crabgrass; [3]) | Plant response rating, Morningglory (morningglory; [4]) | Redroot pigweed plant response rating (0 to 10 scale) (pigweed; Preemergence, Rate 125 g/ha) | Rape plant response rating (rape; Preemergence, Rate 250 g/ha) | Plant response rating, Sugarbeets (sugar beet; [2]) | Plant response rating, Sugarbeets (sugar beet; [4]) | Plant response rating, Velvetleaf (velvetleaf; [2]) | Plant response rating, Wheat (wheat; [3])
10: Bedstraw plant response rating (bedstraw; Preemergence, Rate 250 g/ha) | Bedstraw plant response rating (bedstraw; Preemergence, Rate 500 g/ha) | Blackgrass plant response rating (0 to 10 scale) (blackgrass; Preemergence, Rate 125 g/ha) | Blackgrass plant response rating (blackgrass; Preemergence, Rate 250 g/ha) | Blackgrass plant response rating (blackgrass; Preemergence, Rate 500 g/ha) | Giant foxtail plant response rating (0 to 10 scale) (giant foxtail; Preemergence, Rate 125 g/ha) | Giant foxtail plant response rating (giant foxtail; Preemergence, Rate 250 g/ha) | Giant foxtail plant response rating (giant foxtail; Preemergence, Rate 500 g/ha) | Redroot pigweed plant response rating (pigweed; Preemergence, Rate 500 g/ha) | Wild oats plant response rating (wild oat; Preemergence, Rate 250 g/ha) | Wild oats plant response rating (wild oat; Preemergence, Rate 500 g/ha)
6: B. signalgrass plant response rating (surinam grass; Preemergence, Rate 500 g/ha) | Plant response rating, Corn (corn; [4]) | Morningglory plant response rating (morningglory; Preemergence, Rate 500 g/ha) | Plant response rating, Soybean (soybean; [2]) | Velvetleaf plant response rating (velvetleaf; Preemergence, Rate 250 g/ha) | Plant response rating, Velvetleaf (velvetleaf; [4]) | Wheat plant response rating (wheat; Preemergence, Rate 250 g/ha) | Plant response rating, Wheat (wheat; [4])
4: Plant response rating, Bedstraw (bedstraw; [1]) | Bedstraw plant response rating (bedstraw; Rate 62 g/ha, Postemergence) | Plant response rating, Giant foxtail (giant foxtail; [1]) | Giant foxtail plant response rating (giant foxtail; Rate 62 g/ha, Postemergence) | Soybean plant response rating (soybean; Rate 62 g/ha, Postemergence) | Sugarbeets plant response rating (0 to 10 scale) (sugar beet; Preemergence, Rate 125 g/ha) | Plant response rating, Wheat (wheat; [1])
7: Plant response rating, Bedstraw (bedstraw; [2]) | Plant response rating, Blackgrass (blackgrass; [1]) | Plant response rating, Blackgrass (blackgrass; [2]) | Corn plant response rating (corn; Preemergence, Rate 500 g/ha) | Crabgrass plant response rating (0 to 10 scale) (crabgrass; Preemergence, Rate 125 g/ha) | Crabgrass plant response rating (crabgrass; Preemergence, Rate 250 g/ha) | Redroot pigweed plant response rating (pigweed; Preemergence, Rate 250 g/ha) | Plant response rating, Soybean (soybean; [4]) | Sugarbeets plant response rating (sugar beet; Preemergence, Rate 250 g/ha) | Velvetleaf plant response rating (velvetleaf; Preemergence, Rate 500 g/ha) | Wheat plant response rating (wheat; Preemergence, Rate 500 g/ha) | Plant response rating, Wild oats (wild oat; [4])
